Experimental data as given in US4347319A, “Microbiological epoxidation process” (priority 1980, dated 1982).

Legend:
[1] = test system: cell extract of Kloeckera sp. strain A2 NRRL-Y-11,420; assay: Oxidation of secondary alcohols to methylketone by cell extracts of yeasts; assay type: biochemical
[2] = test system: Methylobacter vinelandii CRL M5Y NRRL B-11,218; assay: Sec. alcohol oxidation by cell suspensions of methanol-grown cells; assay type: cell-based; details: sec. alcohol to methyl ketone
[3] = test system: Hansenula polymorpha ATCC 26012; assay: Oxidation of sec-alcohols to ketones by cell suspensions of yeasts; assay type: cell-based; details: sec-alcohol to methyl ketone
[4] = test system: cell extract of Pichia sp. NRRL-Y-11,328; assay: Oxidation of secondary alcohols to methylketone by cell extracts of yeasts; assay type: biochemical; details: methanol-grown; cell extract + NAD^+; sec. alcohol to methyl ketone; gas chromatography
[5] = test system: Methylomonas methanica (CRL 21 PM7) NRRL B-11,206; assay: Oxidation by washed cell suspensions of methane-grown cells; assay type: cell-based
Outline: (§1)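 Methane/air (1:1)-grown cells, 30 °C, 2 d; harvested, washed 2× in 0.15 M phosphate pH 7.0 + 0.002 M MgCl2. 2 mg cells/vial, gas phase substrate:O2 1:1 v/v, 30 °C, 300 rpm. GC-FID read-out over time.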

[6] = test system: Methylobacter capsulatus (Y, NRRL-B-11,201); assay: Oxidation by cell suspensions of methane-grown cells; assay type: cell-based; details: growth substrate Methane; n-alkane to secondary alcohol
Experimental: (§2) The pH of the nutrient medium was adjusted to 7.0 by the addition of acid or base and 50 ml samples of the nutrient medium were charged into a plurality of 300 ml shaker flasks. The shaker flasks were inoculated with an inoculating loop of cells from an agar plate containing homogeneous colonies of the microorganisms on the plate (the purity of the isolates was confirmed by microscopic examination. The isolates had been maintained on agar plates under an atmosphere of methane and air having a 1:1 v/v gas ratio which had been transferred evey two weeks. The gaseous phase of the inoculated flasks was then replaced with a gas mixture comprised of methane and air having a ratio of 1:1 on a v/v basis. The inoculated flasks were sealed air tight and were incubated on a rotary shaker of orbital radius 2.5 cm at 250 rpm and at 30° C. for two days until turbidity in the medium had developed.
(§3) The cells were harvested by centrifugation at 10,000×g. at 4° C. for 30 minutes. The cell pellet was washed twice with a 0.15 M phosphate buffer at a pH of 7.0 (containing 0.002 M MgCl2). The washed cells were then suspended in a 0.15 M phosphate buffer at pH 7.0.
(§4) A 0.5 ml sample of each washed cell suspension (2 mg cells) was put into 10 ml vials at 4° C. which were sealed with a rubber cap. The gaseous phase of the vials was removed with vacuum and then was replaced with a gas mixture of the oxidative substrate (e.g., methane) and oxygen at a 1:1 v/v ratio. The vials were then incubated at 30 ° C. on a rotary shaker at 300 rpm. Samples of product (3 μl) were withdrawn periodically with a microsyringe and the products were analyzed by gas chromatography (ionization flame detector column).
(§5) The conditions for preparing the cell suspensions or the cell-free particulate fractions from methane-grown methylotroph microorganisms is the same as described above.

[7] = test system: Methylococcus capsulatus (Texas, ATCC 19,069); assay: as above; assay type: cell-based; details: growth substrate Methane; n-alkane to secondary alcohol
Experimental: as §2, §3, §4, §5

[8] = test system: Methylosinus trichosporium OB3b (NRRL B-11,196); assay: as above; assay type: cell-based; details: growth substrate Methane; n-alkane to secondary alcohol
Experimental: as §2, §3, §4, §5

[9] = test system: cell fractions of Methylomonas sp. (CRL-17, NRRL B-11,208); assay: Oxidation by cell fractions P(40), P(80), S(80); assay type: biochemical; details: propylene to propylene oxide, methane to methanol, 30° C.
Outline: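 Cells washed and French-press disrupted in 25 mM K phosphate pH 7.0 with 5 mM MgCl2; particulate P(40), P(80) and soluble S(80) fractions from 40,000×g and 80,000×g spins. Methane or propylene (1:1 with O2) oxidised at 30° C with NADH; methanol/propylene oxide by GC; activity as μmoles product/h/mg protein.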

[10] = test system: Methylomonas rosaceus (CRL M7P) NRRL B-11,213; assay: Oxidation by washed cell suspensions of methane-grown cells; assay type: cell-based; details: 30° C., methane to methanol, alkene to 1,2-epoxide
Outline: as §1

[11] = test system: Methylomonas rubrum (CRL M6P) NRRL B-11,210; assay: as above; assay type: cell-based; details: methane-grown washed cells, 30° C.; methane to methanol, alkene to 1,2-epoxide
Outline: as §1

## CCC(C)O (stereo not drawn) [2-Butanol]
[1]; 2-butanol as a substrate, spectrophotometrically
  specific activities: 90 nmoles NAD^+ reduced per min. per mg. protein
[1]; methanol-grown, cell extract + NAD^+, sec. alcohol to methyl ketone, gas chromatography
  Conversion Rate: 5.9 μmoles/hr/mg Protein
[2]
  Conversion Rates: 2.0 μmoles/hr/mg protein
[3]; growth substrate Ethanol
  Conversion Rate: 4.8 μmoles/hr/mg of protein
[3]; growth substrate Methanol
  Conversion Rate: 5.8 μmoles/hr/mg of protein
[3]; growth substrate Methylamine
  Conversion Rate: 4.5 μmoles/hr/mg of protein
[3]; growth substrate Methylformate
  Conversion Rate: 5.2 μmoles/hr/mg of protein
[3]; growth substrate Propylamine
  Conversion Rate: 4.0 μmoles/hr/mg of protein
[4]
  Conversion Rate: 6.2 μmoles/hr/mg Protein

## CCCC [Butane]
[5]; methane-grown cells, butane to 2-butanone
  Conversion Rate to Ketone: 1.5 μmoles/hr/mg Protein
[6]
  Conversion Rate: 0.09 μmoles/hr/^5 mg. protein
[7]
  Conversion Rate: 1.0 μmoles/hr/^5 mg. protein
[8]
  Conversion Rate: 1.5 μmoles/hr/^5 mg. protein

## C [Methane]
[9]; P(40)
  Oxidizing Activity (rate of oxidation) in cell fraction: 2.9 μ moles of products formed per
[9]; P(80)
  Oxidizing Activity (rate of oxidation) in cell fraction: 2.7 μ moles of products formed per
[9]; S(80)
  Oxidizing Activity (rate of oxidation) in cell fraction: 0 μ moles of products formed per
[10]
  Oxidative Conversion Rates: 1.4 μmole/hr/mg protein
[11]
  Oxidative Conversion Rates: 0.5 μmole/hr/mg protein

## CCC [Propane]
[6]
  Conversion Rate: 0.20 μmoles/hr/^5 mg. protein
[7]
  Conversion Rate: 1.1 μmoles/hr/^5 mg. protein
[8]
  Conversion Rate: 2.5 μmoles/hr/^5 mg. protein

## C=CC [Propylene]
[9]; P(40)
  Oxidizing Activity (rate of oxidation) in cell fraction: 2.2 μ moles of products formed per
[9]; P(80)
  Oxidizing Activity (rate of oxidation) in cell fraction: 2.0 μ moles of products formed per
[9]; S(80)
  Oxidizing Activity (rate of oxidation) in cell fraction: 0 μ moles of products formed per
[10]
  Oxidative Conversion Rates: 2.0 μmole/hr/mg protein
[5]; methane-grown washed cells, 30° C., methane to methanol, alkene to 1,2-epoxide
  Oxidative Conversion Rates: 2.4 μmole/hr/mg protein
[11]
  Oxidative Conversion Rates: 1.0 μmole/hr/mg protein
